Calls of active or inactive are those of the source. No cut-off for these calls is given here.
Experiments:
[1] = Cytotoxicity against HEK293 cells assessed as inhibition of cell growth measured after 48 hrs by MTT assay; type: toxicity, cell-based; conditions: human
HepG2 = assay: Anticancer activity against human HepG2 cells assessed as inhibition of cell growth measured after 48 hrs by MTT assay; type: functional, cell-based; conditions: HepG2, 48 h
K562 [2] = assay: Anticancer activity against human K562 cells assessed as inhibition of cell growth measured after 48 hrs by MTT assay; type: functional, cell-based; conditions: K562, 48 h
HeLa [3] = assay: Anticancer activity against human HeLa cells assessed as inhibition of cell growth measured after 48 hrs by MTT assay; type: functional, cell-based
DU-145 = assay: Anticancer activity against human DU-145 cells assessed as inhibition of cell growth measured after 48 hrs by MTT assay; type: functional, cell-based; conditions: DU-145, 48 h
MCF7 = assay: Anticancer activity against human MCF7 cells assessed as inhibition of cell growth measured after 48 hrs by MTT assay; type: functional, cell-based; conditions: MCF7, 48 h
HeLa [4] = assay: Induction of cell cycle arrest in human HeLa cells assessed as accumulation of cells at subG1 phase at 5 uM measured after 48 hrs by propidium iodide staining based flow cytometry analysis (reference value: 6.8%); type: functional
HeLa [5] = assay: Induction of cell cycle arrest in human HeLa cells assessed as accumulation of cells at S phase at 1 uM measured after 48 hrs by propidium iodide staining based flow cytometry analysis (reference value: 1.0%); type: functional
HeLa [6] = assay: Induction of apoptosis in human HeLa cells assessed as late apoptotic cells at 1 uM measured after 48 hrs by annexin V-FITC based propidium iodide dual staining based flow cytometry analysis (reference value: 3.5%); type: functional
HeLa [7] = assay: Induction of apoptosis in human HeLa cells assessed as viable cells at 5 uM measured after 48 hrs by annexin V-FITC based propidium iodide dual staining based flow cytometry analysis (reference value: 81.7%); type: functional; conditions: read-out: Activity
HeLa [8] = assay: Induction of cell cycle arrest in human HeLa cells assessed as accumulation of cells at subG1 phase at 1 uM measured after 48 hrs by propidium iodide staining based flow cytometry analysis (reference value: 6.8%); type: functional
HeLa [9] = assay: Induction of apoptosis in human HeLa cells assessed as viable cells at 1 uM measured after 48 hrs by annexin V-FITC based propidium iodide dual staining based flow cytometry analysis (reference value: 81.7%); type: functional; conditions: read-out: Activity
HeLa [10] = assay: Induction of cell cycle arrest in human HeLa cells assessed as accumulation of cells at S phase at 5 uM measured after 48 hrs by propidium iodide staining based flow cytometry analysis (reference value: 1.0%); type: functional
HeLa [11] = assay: Induction of cell cycle arrest in human HeLa cells assessed as accumulation of cells at G2/M phase at 5 uM measured after 48 hrs by propidium iodide staining based flow cytometry analysis (reference value: 6.9%); type: functional
HeLa [12] = assay: Induction of apoptosis in human HeLa cells assessed as necrotic cells at 1 uM measured after 48 hrs by annexin V-FITC based propidium iodide dual staining based flow cytometry analysis (reference value: 1.0%); type: functional
HeLa [13] = assay: Induction of apoptosis in human HeLa cells assessed as necrotic cells at 5 uM measured after 48 hrs by annexin V-FITC based propidium iodide dual staining based flow cytometry analysis (reference value: 1.0%); type: functional
HeLa [14] = assay: Induction of cell cycle arrest in human HeLa cells assessed as accumulation of cells at G0/G1 phase at 5 uM measured after 48 hrs by propidium iodide staining based flow cytometry analysis (reference value: 85.6%); type: functional
HeLa [15] = assay: Induction of apoptosis in human HeLa cells assessed as late apoptotic cells at 5 uM measured after 48 hrs by annexin V-FITC based propidium iodide dual staining based flow cytometry analysis (reference value: 3.5%); type: functional
HeLa [16] = assay: Induction of cell cycle arrest in human HeLa cells assessed as accumulation of cells at G0/G1 phase at 1 uM measured after 48 hrs by propidium iodide staining based flow cytometry analysis (reference value: 85.6%); type: functional
HeLa [17] = assay: Induction of cell cycle arrest in human HeLa cells assessed as accumulation of cells at G2/M phase at 1 uM measured after 48 hrs by propidium iodide staining based flow cytometry analysis (reference value: 6.9%); type: functional
K562 [18] = assay: Downregulation of EGFR expression in human K562 cells at 1 to 5 uM measured after 48 hrs by RT-qPCR analysis; type: functional, cell-based; conditions: dose 1-5 µM
K562 [19] = assay: Downregulation of MCL-1 expression in human K562 cells at 1 to 5 uM measured after 48 hrs by RT-qPCR analysis; type: functional, cell-based; conditions: dose 1-5 µM
HeLa [20] = assay: Induction of apoptosis in human HeLa cells assessed as early apoptotic cells at 1 uM measured after 48 hrs by annexin V-FITC based propidium iodide dual staining based flow cytometry analysis (reference value: 13.8%); type: functional
HeLa [21] = assay: Induction of apoptosis in human HeLa cells assessed as early apoptotic cells at 5 uM measured after 48 hrs by annexin V-FITC based propidium iodide dual staining based flow cytometry analysis (reference value: 13.8%); type: functional
K562 [22] = assay: Downregulation of MCL-1 expression in human K562 cells measured after 48 hrs by RT-qPCR analysis; type: functional, cell-based; conditions: dose 1-5 µM
K562 [23] = assay: Downregulation of EGFR expression in human K562 cells measured after 48 hrs by RT-qPCR analysis; type: functional, cell-based; conditions: dose 1-5 µM
HeLa [24] = assay: Induction of apoptosis in human HeLa cells assessed as nuclear condensation at 1 to 5 uM measured after 48 hrs by Hoechst staining based fluorescent microscopic analysis; type: functional, cell-based; conditions: dose 1-5 µM

SMILES | IC50 (HepG2) | IC50 (K562 [2]) | IC50 (HeLa [3]) | IC50 (DU-145) | IC50 (MCF7) | IC50 at 48 h [1] | also measured
CC1(C)OC(=O)C(=Cc2cn(Cc3cn(-c4ccc(Br)cc4)nn3)c3ncccc23)C(=O)O1 | 29.1 µM | 12.5 µM | 6.87 µM | 15.4 µM | 7.32 µM | 93.9 µM | –
CC1(C)OC(=O)C(=Cc2cn(Cc3cn(-c4ccc(I)cc4)nn3)c3ncccc23)C(=O)O1 | 27.9 µM | 16.8 µM | 16.2 µM | 32.1 µM | 15.2 µM | > 100 µM | –
CC1(C)OC(=O)C(=Cc2cn(Cc3cn(-c4ccc([N+](=O)[O-])cc4)nn3)c3ncccc23)C(=O)O1 | 30.1 µM | 21.4 µM | 19.4 µM | 27.7 µM | 25.8 µM | > 100 µM | –
COc1cccc2c1C(=O)c1c(O)c3c(c(O)c1C2=O)C[C@@](O)(C(=O)CO)C[C@@H]3O[C@H]1C[C@H](N)[C@H](O)[C@H](C)O1 [DOXORUBICIN] | – | 1.23 µM | – | – | 1.48 µM | – | Activity (HeLa [4]): 3.7%; Activity (HeLa [5]): 3%; Activity (HeLa [6]): 3.1%; viability at 5 µM (HeLa [7]): 64.4%; Activity (HeLa [8]): 4.2%; viability at 1 µM (HeLa [9]): 75.6%; Activity (HeLa [10]): 2.6%; Activity (HeLa [11]): 52.7%; Activity (HeLa [12]): 1.7%; Activity (HeLa [13]): 0.5%; Activity (HeLa [14]): 40.3%; Activity (HeLa [15]): 4.8%; Activity (HeLa [16]): 60%; Activity (HeLa [17]): 34.2%; Activity (K562 [18]): Active; Activity (K562 [19]): Active; Activity (HeLa [20]): 19.6%; Activity (HeLa [21]): 30.3%
COc1ccc(-n2cc(Cn3cc(C=C4C(=O)OC(C)(C)OC4=O)c4cccnc43)nn2)cc1 | 42.1 µM | 16.4 µM | 15.9 µM | 33.8 µM | 36.1 µM | 99.7 µM | –
COc1cc(OC)cc(-n2cc(Cn3cc(C=C4C(=O)OC(C)(C)OC4=O)c4cccnc43)nn2)c1 | 28.4 µM | 14.5 µM | 9.68 µM | 14.7 µM | 20.2 µM | 81.7 µM | –
COc1cc(-n2cc(Cn3cc(C=C4C(=O)OC(C)(C)OC4=O)c4cccnc43)nn2)cc(OC)c1OC | 20.1 µM | 14.3 µM | 9.52 µM | 18.8 µM | 13.1 µM | 76.6 µM | –
CC1(C)OC(=O)C(=Cc2cn(Cc3cn(-c4cc(Cl)cc(Cl)c4)nn3)c3ncccc23)C(=O)O1 | 49.4 µM | 26.8 µM | 25 µM | 37.8 µM | 25.4 µM | > 100 µM | –

The next lines start with results.

IC50 (HepG2) | IC50 (K562 [2]) | IC50 (HeLa [3]) | IC50 (DU-145) | IC50 (MCF7) | SMILES | IC50 at 48 h [1] | also measured
26.6 µM | 17.2 µM | 12.8 µM | 28.4 µM | 20.1 µM | CC1(C)OC(=O)C(=Cc2cn(Cc3cn(-c4cccc(Cl)c4)nn3)c3ncccc23)C(=O)O1 | > 100 µM | –
26.1 µM | 20.2 µM | 16.6 µM | 33.8 µM | 24.2 µM | CC1(C)OC(=O)C(=Cc2cn(Cc3cn(-c4ccc(Cl)c(Cl)c4)nn3)c3ncccc23)C(=O)O1 | > 100 µM | –
29.2 µM | 20.2 µM | 21.3 µM | 49.3 µM | 28.3 µM | CC1(C)OC(=O)C(=Cc2cn(Cc3cn(-c4ccccc4)nn3)c3ncccc23)C(=O)O1 | > 100 µM | –
9.97 µM | 6.03 µM | 4.44 µM | 12.4 µM | 6.67 µM | Cc1ccc(-n2cc(Cn3cc(C=C4C(=O)OC(C)(C)OC4=O)c4cccnc43)nn2)cc1 | > 100 µM | Activity (HeLa [4]): 3.1%; Activity (K562 [22]): Dose-Dependent Effect; Activity (HeLa [5]): 2.1%; Activity (HeLa [6]): 2.5%; viability at 5 µM (HeLa [7]): 55.4%; Activity (HeLa [8]): 6%; viability at 1 µM (HeLa [9]): 79.2%; Activity (HeLa [10]): 2.7%; Activity (HeLa [11]): 54.4%; Activity (K562 [23]): Dose-Dependent Effect; Activity (HeLa [12]): 1.5%; Activity (HeLa [13]): 0.3%; Activity (HeLa [24]): Active; Activity (HeLa [14]): 39.1%; Activity (HeLa [15]): 4.6%; Activity (HeLa [16]): 72.2%; Activity (HeLa [17]): 20.7%; Activity (HeLa [20]): 16.8%; Activity (HeLa [21]): 39.7%
21.9 µM | 16.1 µM | 12.8 µM | 15.4 µM | 18 µM | CC1(C)OC(=O)C(=Cc2cn(Cc3cn(-c4ccccc4Cl)nn3)c3ncccc23)C(=O)O1 | > 100 µM | –
27.8 µM | 19.1 µM | 10.3 µM | 22.6 µM | 19.9 µM | CC1(C)OC(=O)C(=Cc2cn(Cc3cn(-c4ccc(Br)cc4F)nn3)c3ncccc23)C(=O)O1 | 90.8 µM | –
37 µM | 19.1 µM | 18.9 µM | 22.8 µM | 20.8 µM | CC1(C)OC(=O)C(=Cc2cn(Cc3cn(-c4ccc(F)cc4)nn3)c3ncccc23)C(=O)O1 | > 100 µM | –
24.5 µM | 20.5 µM | 16.7 µM | 22.6 µM | 22.9 µM | CC1(C)OC(=O)C(=Cc2cn(Cc3cn(-c4ccc(Cl)cc4)nn3)c3ncccc23)C(=O)O1 | 97.3 µM | –

Reference: ChEMBL document CHEMBL5634208, “Design and synthesis of Meldrum's acid based 7-azaindole anchored 1,2,3-triazole hybrids as anticancer agents” (RSC Med Chem, 2024)
